For orientation: IC50 means the concentration that inhibits the measured activity by half.

One data set has as its system IIIB strain of HIV. The data set can be described thus: microbe, parasite or virus in culture. The class given is cell-based. The protocol:
The following test procedure was employed.
In a classical virology assay aimed at testing the antiviral activity of a drug, the virus is added in the presence of a drug to target cells for the determined period of inoculation time, e.g., 1 hour, and then nonadsorbed virus is washed away and inoculated cells are exposed again to a fresh drug. After several days, a period corresponding to the replication cycle of the virus, the dose-effect of the drug is tested by measuring the quantity of newly-synthesized virus in the culture supernates of inoculated cells. But this strategy is not truly representative of the in vivo situation. It is clear that in a real-life situation the virus is not "flushed" from a human body prior to drug administration. […] In the present assay, virus, drug and cells were left without washing in the culture until tested for virus production 3 days later. This period of time presents one full cycle of HIV replication, Dimitrov et al., J. Virol. 67:2182-90, 1993. It is believed that this type of approach represents more closely and simulates the situation which exists in vivo.
p24 ELISA. Reduction of productive infection was evaluated by a commercial ELISA kit for viral core gag p24 product according to the manufacturer's instructions (Coulter, Hialeah, Fla.) as follows. Detergent-lysed samples of viral culture medium that were incubated in wells (96-well format), precoated with anti-p24 antibody, were screened for gag antigen by adding biotin-labeled anti-p24 antibody followed by streptavidin-peroxidase conjugate. The amount of captured p24 was measured by comparing the optical density (450 nm) of peroxidase substrate with supplied standards containing known amounts of p24. The lower limit of reliable sensitivity of this kit is 7.8 pg/ml.

Another data set concerns HIV. Conditions: cited from earlier work; for Dose protecting against / abrogating HIV infection in vitro: literature figures, equivalent of the % or μM value.
A further data set has as its system MT-4 lymphocytes. Conditions: MT-4 cells, 3 days continuous exposure; approximate log10 concentration.
The conditions of data set [1]: 30 minutes in an autoclave; cited from earlier work.
[2] abbreviates: MT-4 cells, HIV IIIB, 3 days, p24 ELISA, approximate log10 concentration.

Values after ≈ are worked out from the molar mass of the structure shown.

For the compound `Cc1cc2c(C(C)C)c(O)c(O)c(C=O)c2c(O)c1-c1c(C)cc2c(C(C)C)c(O)c(O)c(C=O)c2c1O` [Gossypol, gossypol], the IC50 in the data set with IIIB strain of HIV (Human immunodeficiency virus 1, MT4, 72 h, MT-4 cells, HIV IIIB, 3 days, p24 ELISA, approximate log10 concentration, read-out: IC50 (50% inhibition of HIV infection)) is about 1 µg/mL (≈ 1.93 µM). Further, in the data set on IIIB strain of HIV (MT-4 cells, HIV IIIB), the “Dose giving complete protection against HIV infection” value is 10 µg/mL. Further, the “IC100 (100% inhibition of HIV infection)” value with IIIB strain of HIV (setting [2]) is about 10 µg. Besides, the “Dose protecting against / abrogating HIV infection in vitro” value in the data set with HIV was 50 µg/mL. For the same compound, the “Concentration reported to abrogate HIV infection” value with HIV (literature in vitro studies) is 100 µM. In addition, the “CC100 (cytotoxicity)” value in the data set with MT-4 lymphocytes was about 10 µg.
Regarding gramicidin, the “IC100 (100% inhibition of HIV infection)” value in the data set on IIIB strain of HIV (setting [2]) was about 0.01 µg. The “Cytopathic effect (membrane ballooning, syncytia)” value with IIIB strain of HIV (wells where viral replication was completely inhibited) is given as “No signs of cytophatic effect were observed”.
On to gramicidin S, for which, in data set [1], the “Retention of biological activity after autoclaving” value is “retains its biological activity”.
With nonoxynol-9, the “Dose giving complete protection against HIV infection” value in the data set on IIIB strain of HIV (MT-4 cells, HIV IIIB) was found to be 10 µg/mL. Moreover, in the data set on IIIB strain of HIV (setting [2]), the “IC50 (50% inhibition of HIV infection)” value is on record as about 10 ng and the “IC100 (100% inhibition of HIV infection)” value is about 10 µg. For the same compound, the “Dose protecting against / abrogating HIV infection in vitro” value in the data set with HIV is 50 µg/mL. In addition, the “Dose at which the protective effect was generally observed in vitro” value in the data set with HIV (literature review of in vitro investigations) was 0.05%. The “CC100 (cytotoxicity)” value in the data set with MT-4 lymphocytes was about 10 µg.
